For data set [1], the target named is T1, Human Prostanoid EP4 Receptor (Homo sapiens, UniProt P35408).
T1 construct: expressed in transfected cells; host or cells: HEK-293 cells (membrane homogenates)
In words: Radioligand binding assay, agonist site of human prostanoid EP4 receptor in transfected HEK-293 cells. The note with it: for hEP4 receptor binding, % @100: @100, printed in the IC50 (nM) column. How it is done: Radioligand Binding Assay for the Evaluation of the Affinity of Compounds for the Agonist Site of the Human Prostanoid EP4 Receptor in Transfected HEK-293 Cells
Following incubation, the samples are filtered rapidly under vacuum through glass fiber filters (GF/B, Packard) presoaked with 0.3% PEI and rinsed several times with ice-cold 50 mM Tris-HCl using a 96-sample cell harvester (Unifilter, Packard). The filters are dried then counted for radioactivity in a scintillation counter (Topcount, Packard) using a scintillation cocktail (Microscint 0, Packard).

In the next data set the test system is rat calvarial defect. In words: Rat calvarial defect model, drug in calcium phosphate cement suspended in demineralized bone matrix putty. The data set is classed as in vivo, female Sprague Dawley rats. As to conditions: 2.6 mm defect; 3 μg/ml to 3 mg/ml in cement-DBM putty 1:8; eight weeks; FIG. 1. How it is done:
The rat calvarial defect model is a widely used model through which the ability of a treatment agent to induce bone formation is assessed (Aghaloo et al., The effect of NELL1 and bone morphogenetic protein-2 on calvarial bone regeneration, J. Oral Maxillofac. Surg. 2010: 68:300-308; Mark et al., Repair of calvarial nonunions by osteogenin, a bone-inductive protein, Plast. Reconstr. Surg. 1990: 86:623-30).
Bone defects are created by removal of bone from the cranium of female Sprague Dawley rats by a bone trephine (cranial defect). Cranial defects are 2.6 mm in diameter and the cranium approximately 1 mm thick. A matrix of approximately 2 mm thickness is applied to the defect. Thus the dosing volume for each defect is calculated as π*r^2*matrix thickness=3.14*1.3^2*2=10.61 μl and rounded to 11 μl for purposes of dose calculation.
EXAMPLE 2C is tested at seven doses with five rats in each group. These are 3, 10, 30, 100 and 300 μg/ml and 1 and 3 mg/ml. A negative control group treated with dosing matrix containing no drug (Vehicle) as well as a positive control group treated with 50 μg/ml recombinant human bone morphogenetic protein 2 (BMP-2) are also included in the study. […]
The area measured each week is compared to that of the first week and the degree of repair calculated by the following formula: (original area−current area)/original area*100 […]

A further data set has as its system osteoporotic femur. In words: Bone density of osteoporotic femur after osteotomy with drug-cement insert in ovariectomized rats. The data set is classed as in vivo, Female Sprague Dawley rats. The note with it: 100 μg/gm or 300 μg/gm cement insert; twenty weeks; FIG. 6. The protocol: Dosing solutions are made from a 5 mg/ml Example 2E' stock which is made by dissolving 2.08 mg of neat Example 2E' in 416 μl of 100% ethanol. The dosing solution for Example 2E' was made by adding 44.4 μL of the 5 mg/ml stock to 22.2 mg of calcium phosphate cement powder. The Vehicle dosing solution was made by adding 50.4 μl of ethanol containing no Example 2E' to 25.2 mg of calcium phosphate cement powder. After the ethanol has been vented off, the cement is wetted with a setting solution and mixed thoroughly for 1 minute as the cement begins to set. The cement is separated into five aliquots and placed on a glass microscope slide. […] After obtaining the CT image the cross sectional density of the bone 3 mm dorsal to the implant site is measured in three places and the measurements averaged. The density of the phantom is measured at the same time and is compared to the phantom measurement on week 0. […] For example the density of the femur of a vehicle treated rat imaged on week 0 is measured at 3028, 3597 and 3329 units (average=3318) and the phantom measured 4209 units. […] The relative density on bone at week 3 compared to week 0 is then calculated as: average week 3normalized/average week 0*100=3378/3318*100=101.8% The mean change in bone density of both groups after three weeks of treatment is shown in FIG. 5. […]

T1 sequence (P35408 whole entry): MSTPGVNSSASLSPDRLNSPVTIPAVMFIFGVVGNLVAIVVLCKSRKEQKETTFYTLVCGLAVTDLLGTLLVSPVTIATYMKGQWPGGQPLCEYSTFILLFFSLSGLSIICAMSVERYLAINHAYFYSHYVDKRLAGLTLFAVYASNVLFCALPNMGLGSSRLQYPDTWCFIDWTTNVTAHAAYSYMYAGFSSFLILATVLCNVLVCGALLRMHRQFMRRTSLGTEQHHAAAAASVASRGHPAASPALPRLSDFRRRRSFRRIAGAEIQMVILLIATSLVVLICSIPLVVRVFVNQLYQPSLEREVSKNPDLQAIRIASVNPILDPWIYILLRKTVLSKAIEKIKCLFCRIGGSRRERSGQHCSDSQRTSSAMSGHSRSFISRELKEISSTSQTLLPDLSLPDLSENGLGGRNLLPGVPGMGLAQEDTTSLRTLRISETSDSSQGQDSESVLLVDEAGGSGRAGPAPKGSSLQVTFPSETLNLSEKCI

As for `CCCC#CCC(C)[C@H](O)/C=C/[C@H]1CCC(=O)N1CCCCCCC(=O)O` (mixture of isomers) [3C′, 7-((2R)-2-((3S,4R/S,E)-3-hydroxy-4-methyldec-1-en-6-yn-1-yl)-5-oxopyrrolidin-1-yl)heptanoic acid], the melting point is 104 to 105 °C. On to `CC#CCC(C)[C@H](O)/C=C/[C@H]1CCC(=O)N1CCCCCCC(=O)O` (mixture of isomers) [Example 1C′, 7-((2R)-2-((3S,4R/S,E)-3-hydroxy-4-methyloct-1-en-6-yn-1-yl)-5-oxopyrrolidin-1-yl)heptanoic acid], for which, in data set [1], the “hEP4 receptor binding, % @100” value is given as 86% @100.

For the compound `CC#CCC(C)[C@@H](O)/C=C/[C@H]1CCC(=O)N1CCCCCCC(=O)O` (mixture of isomers) [Example 1D′, 7-((2R)-2-((3R,4R/S,E)-3-hydroxy-4-methyloct-1-en-6-yn-1-yl)-5-oxopyrrolidin-1-yl)heptanoic acid], the “hEP4 receptor binding, % @100” value in data set [1] is on record as 11% @100. `CCC#CC[C@H](C)[C@H](O)/C=C/[C@H]1CC(F)(F)C(=O)N1CCCCCCC(=O)O` [Example 2C, 7-((R)-3,3-difluoro-5-((3S,4S,E)-3-hydroxy-4-methylnon-1-en-6-yn-1-yl)-2-oxopyrrolidin-1-yl)heptanoic acid]: the “Healing of a calvarial bone defect” value with rat calvarial defect is given as “Accelerated Healing”. Turning to `C[C@@H](CCCc1ccccc1)[C@H](O)/C=C/[C@H]1CC(F)(F)C(=O)N1CCCCCCC(=O)O` [Example 6D, 7-((R)-3,3-difluoro-5-((3S,4S,E)-3-hydroxy-4-methyl-7-phenylhept-1-en-1-yl)-2-oxopyrrolidin-1-yl)heptanoic acid], the IC50 in data set [1] (0.5 nM [3H]PGE2, HEK-293 cell membrane homogenates, read-out: hEP4 receptor binding (nM) IC50) turned out to be 2.4 nM. In addition, the inhibitory constant (Ki) in data set [1] (0.5 nM [3H]PGE2, HEK-293 cell membrane homogenates, read-out: hEP4 receptor binding (nM) Ki) is 0.89 nM. As for `C[C@@H](CCCc1ccccc1)[C@H](O)/C=C/[C@H]1CC(F)(F)C(=O)N1CCCc1ccc(C(=O)O)s1` [Example 28C, 5-(3-((R)-3,3-difluoro-5-((3S,4S,E)-3-hydroxy-4-methyl-7-phenylhept-1-en-1-yl)-2-oxopyrrolidin-1-yl)propyl)thiophene-2-carboxylic acid], in the data set with osteoporotic femur, the “Bone density of osteoporotic femur” value was “Increased Bone Density”.

As a reminder, the melting point is the temperature of the solid-liquid transition. By IC50 is commonly meant the point on the concentration scale where inhibition reaches its midpoint. The Ki is a dissociation constant, usually derived from enzyme kinetics or from competition with a known ligand.

These data come from patent publication US10729810B2, “Methods, systems, and compositions for promoting bone growth” (Cayman Chemical Company, Inc., priority 2013, dated 2020).
